Measured values taken from BindingDB's records for doi:10.1021/jm800318d (Vertex Pharmaceuticals, 2008).

What follows are compounds tested against DNA gyrase A/A/B/B tetramer (Escherichia coli (strain K12), UniProt P0AES4+P0AES6) (assay: DNA Gyrase ATPase Assay).

Row | SMILES | Ki
1 | CCNC(=O)Nc1nc2c(-n3cccn3)cc(-c3cccnc3)cc2[nH]1 [3-ethyl-1-[7-(1H-pyrazol-1-yl)-5-(pyridin-3-yl)-1H-1,3-benzodiazol-2-yl]urea] | < 4 nM
2 | CCNC(=O)Nc1nc2c(-n3cccn3)cc(-c3cncnc3)cc2[nH]1 [3-ethyl-1-[7-(1H-pyrazol-1-yl)-5-(pyrimidin-5-yl)-1H-1,3-benzodiazol-2-yl]urea] | < 4 nM
3 | CCNC(=O)Nc1nc2cc(-c3ccn(C)c(=O)c3)cc(-c3ncccc3F)c2[nH]1 [3-ethyl-1-[7-(3-fluoropyridin-2-yl)-5-(1-methyl-2-oxo-1,2-dihydropyridin-4-yl)-1H-1,3-benzodiazol-2-yl]urea] | < 4 nM
4 | CCNC(=O)Nc1nc2cc(-c3cccnc3)cc(-c3ncccc3F)c2[nH]1 [3-ethyl-1-[7-(3-fluoropyridin-2-yl)-5-(pyridin-3-yl)-1H-1,3-benzodiazol-2-yl]urea] | < 4 nM
5 | CCNC(=O)Nc1nc2cc(-c3cccnc3)cc(-c3ccccn3)c2[nH]1 [3-ethyl-1-[7-(pyridin-2-yl)-5-(pyridin-3-yl)-1H-1,3-benzodiazol-2-yl]urea] | < 4 nM
6 | CCNC(=O)Nc1nc2cc(-n3cnc(C(=O)NC4CC4)c3)c(F)cc2[nH]1 [N-cyclopropyl-1-{2-[(ethylcarbamoyl)amino]-6-fluoro-1H-1,3-benzodiazol-5-yl}-1H-imidazole-4-carboxamide] | < 4 nM
7 | CCNC(=O)Nc1nc2c(-n3cccn3)cc(-n3cnc(C(=O)NC4CC4)c3)cc2[nH]1 [N-cyclopropyl-1-{2-[(ethylcarbamoyl)amino]-7-(1H-pyrazol-1-yl)-1H-1,3-benzodiazol-5-yl}-1H-imidazole-4-carboxamide] | < 4 nM
8 | CCNC(=O)Nc1nc2c(-c3ccccn3)cc(-n3cnc(C(=O)NC4CC4)c3)cc2[nH]1 [N-cyclopropyl-1-{2-[(ethylcarbamoyl)amino]-7-(pyridin-2-yl)-1H-1,3-benzodiazol-5-yl}-1H-imidazole-4-carboxamide] | < 4 nM
9 | CCNC(=O)Nc1nc2cc(-c3cccnc3)cc(C(=O)OC)c2[nH]1 [methyl 2-[(ethylcarbamoyl)amino]-5-(pyridin-3-yl)-1H-1,3-benzodiazole-7-carboxylate] | < 4 nM
